Measured values taken from US20240148821A1, “PHARMACEUTICAL USE OF CYCLIC PEPTIDE COMPOUND” (CHUGAI SEIYAKU KABUSHIKI KAISHA, priority 2021, published 2024).
Numbered stars: 1 amine (or outer) side, 2 acyl side, 3 side chain; on linkers, the order of the positions; unused ones are H or OH. Bridge positions count the residues as written; N and C are the ends. Square brackets hold non-standard residues; d marks the D form. Peptide text beside a SMILES is read from it. * marks the point of attachment. hPhe(3,5-F2-4-CF3) = N[C@@H](CCc1cc(F)c(C(F)(F)F)c(F)c1)C(=O)O; hPhe(3-Cl-4-CF3) = N[C@@H](CCc1ccc(C(F)(F)F)c(Cl)c1)C(=O)O; hPhe(3-F,4-CF3) = N[C@@H](CCc1ccc(C(F)(F)F)c(F)c1)C(=O)O; 3Oxa8azabicyclo(3.2.1)octane = C1CC2COCC1N2*; NMePhe(4-Cl) = CN[C@@H](Cc1ccc(Cl)cc1)C(=O)O; NMePhe(4-Me) = CN[C@@H](Cc1ccc(C)cc1)C(=O)O; NMedβ3hAla = C[C@H](CC(=O)[*:2])N(C)[*:1]; NMeGly(cPent) = CN[C@H](C(=O)O)C1CCCC1; NMe3Pal = CN[C@@H](Cc1cccnc1)C(=O)O; NMeCha = CN[C@@H](CC1CCCCC1)C(=O)O; NMehLeu = CN[C@@H](CCC(C)C)C(=O)O; NMeAhp(2) = CCCCC[C@H](NC)C(=O)O; NMeChg = CN[C@H](C(=O)O)C1CCCCC1; NMeF = CN[C@@H](Cc1ccccc1)C(=O)O; NMeI = CC[C@H](C)[C@H](NC)C(=O)O; N(CH2CH2)2CF2 = FC1(F)CCN(*)CC1; NMeD = CN[C@@H](CC(=O)O)C(=O)O; dNMeD = CN[C@H](CC(=O)O)C(=O)O; NMeL = CN[C@@H](CC(C)C)C(=O)O; NEtAla = CCN[C@@H](C)C(=O)O; NMeV = CN[C@H](C(=O)O)C(C)C; d(β3hA) = C[C@@H](N)CC(=O)O; Azetidin(1-yl) = C1CN(*)C1; NMeA = CN[C@@H](C)C(=O)O; NMeAib = CNC(C)(C)C(=O)O; Piperidide = C1CCN(*)CC1; dNMeA = CN[C@H](C)C(=O)O; Ac5c = NC1(C(=O)O)CCCC1; Aze = O=C(O)[C@@H]1CCN1; Sar = CNCC(=O)O

Tests used:
[1] = target: protein-protein interaction between Kras and SOS1 (biotin-tagged human Kras loaded with GDP, His-tagged human SOS1) (Homo sapiens (Human), UniProt P01116, G12D); assay: Protein-protein interaction inhibition between Kras and SOS1 (KrasG12D-SOS PPI) using AlphaScreen; assay type: biochemical; settings: AlphaScreen; biotin-tagged human Kras loaded with GDP, His-tagged human SOS1; read-out: KRAS G12D-SOS PPI IC50;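 further: kras produced in E. coli, Ni-coupled donor beads and streptavidin acceptor beads, excitation 680 nm with emission detected at 520–620 nm via singlet oxygen transfer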
[2] = system: Human pancreatic cancer cell line AsPC-1 (G12D mutation Kras); assay: AsPC-1 cell growth inhibition (AsPC-1 CGI); assay type: cell-based; settings: read-out: AsPC-1 cell growth inhibition, 50% growth inhibitory concentration (IC50 value); 96 hours, CellTiter-Glo, values classified in ranges
Protocol: Test compounds were serially dilated with dimethyl sulfoxide, and 200 nL was then dispensed to a U-bottom 96-well plate using Labcyte Echo. […] The cell suspension was dispensed to a. plate containing a test compound at 100 μL per well and incubated at 37° C. in a 5% carbon dioxide gas incubator. 96 hours later, 80 μL of CellTiter-Glo (Promega) was added to each well and fluorescence was measured.

Structure (SMILES)	IC50 [1]	IC50 [2]
CC[C@H](C)[C@@H]1NC(=O)[C@H](CC(C)C)N(C)C(=O)C[C@@H](C)N(C)C(=O)[C@H](C(C)C)NC(=O)C(C)(C)N(C)C(=O)[C@H](CC(C)C)NC(=O)[C@H](CCc2ccc(C(F)(F)F)c(F)c2)NC(=O)CN(C)C(=O)[C@H](CC2CCCCC2)N(C)C(=O)CN(C)C(=O)CN(C)C1=O [Compound 967] (cyclo(I[Sar][Sar][NMeCha][Sar][hPhe(3-F,4-CF3)]L[NMeAib]V[NMedβ3hAla][NMeL]))	58 nM	> 500 nM
CC[C@H](C)[C@@H]1NC(=O)[C@H](CC(C)C)N(C)C(=O)C[C@@H](C(=O)N2C3CCC2COC3)N(C)C(=O)[C@H](C2CCCC2)N(C)C(=O)C2(CCCC2)NC(=O)[C@@H]2CCCN2C(=O)[C@H](CCc2ccc(C(F)(F)F)c(Cl)c2)NC(=O)CN(C)C(=O)[C@H](CC2CCCCC2)N(C)C(=O)[C@@H]2CCN2C(=O)[C@H](C)N(C)C1=O [Compound 973] ([NMeL]I[NMeA][Aze][NMeCha][Sar][hPhe(3-Cl-4-CF3)]P[Ac5c][NMeGly(cPent)][NMeD]-{3Oxa8azabicyclo(3.2.1)octane}; lactam N-11)	2.8 nM	≤ 20 nM
CC[C@H](C)[C@@H]1NC(=O)[C@H](CC(C)C)N(C)C(=O)C[C@@H](C(=O)N(C)C)N(C)C(=O)[C@H]([C@@H](C)CC)N(C)C(=O)C2(CCCC2)NC(=O)[C@@H]2CCCN2C(=O)[C@H](CCc2ccc(C(F)(F)F)c(F)c2)NC(=O)CN(C)C(=O)[C@H](CC2CCCCC2)N(C)C(=O)[C@@H]2CCN2C(=O)[C@H](C)N(C)C1=O [Compound 999] ([NMeL]I[NMeA][Aze][NMeCha][Sar][hPhe(3-F,4-CF3)]P[Ac5c][NMeI][NMeD]-NMe2; lactam N-11)	1.7 nM	≤ 20 nM
CC[C@H](C)[C@@H]1NC(=O)[C@H](C)N(C)C(=O)C[C@@H](C)NC(=O)[C@H](C2CCCC2)N(C)C(=O)C2(CCCC2)NC(=O)[C@@H]2CCCN2C(=O)[C@H](CCc2ccc(C(F)(F)F)c(Cl)c2)NC(=O)CN(C)C(=O)[C@H](Cc2ccccc2)N(C)C(=O)[C@@H]2CCCN2C(=O)CN(C)C1=O [Compound 1004] (cyclo([Ac5c][NMeGly(cPent)][d(β3hA)][NMeA]I[Sar]P[NMeF][Sar][hPhe(3-Cl-4-CF3)]P))	13 nM	> 500 nM
CC[C@H](C)[C@@H]1NC(=O)[C@H](CC(C)C)N(C)C(=O)C[C@@H](C(=O)N(C)C)N(C)C(=O)[C@H](C2CCCC2)N(C)C(=O)[C@H](C(C)C)NC(=O)[C@@H]2CCCN2C(=O)[C@H](CCc2ccc(C(F)(F)F)c(Cl)c2)NC(=O)CN(C)C(=O)[C@H](CC2CCCCC2)N(C)C(=O)[C@@H]2CCN2C(=O)[C@H](C)N(C)C1=O [Compound 1010] ([NMeL]I[NMeA][Aze][NMeCha][Sar][hPhe(3-Cl-4-CF3)]PV[NMeGly(cPent)][NMeD]-NMe2; lactam N-11)	4.3 nM	> 500 nM
CC[C@H](C)[C@@H]1NC(=O)[C@H](C)N(C)C(=O)C[C@@H](C)NC(=O)[C@H](C2CCCC2)N(C)C(=O)C2(CCCC2)NC(=O)[C@@H]2CCCN2C(=O)[C@H](CCc2ccc(C(F)(F)F)c(Cl)c2)NC(=O)[C@@H](C)N(C)C(=O)[C@H](Cc2cccnc2)N(C)C(=O)[C@@H]2CCN2C(=O)[C@H](C)N(C)C1=O [Compound 1011] (cyclo([Ac5c][NMeGly(cPent)][d(β3hA)][NMeA]I[NMeA][Aze][NMe3Pal][dNMeA][hPhe(3-Cl-4-CF3)]P))	38 nM	> 500 nM
CC[C@H](C)[C@@H]1NC(=O)[C@H](CC(C)C)N(C)C(=O)C[C@@H](C(=O)N(C)C)N(C)C(=O)[C@H]([C@@H](C)CC)N(C)C(=O)C2(CCCC2)NC(=O)[C@@H]2CCCN2C(=O)[C@H](CCc2ccc(C(F)(F)F)c(F)c2)NC(=O)CN(C)C(=O)[C@H](Cc2ccc(C)cc2)N(C)C(=O)[C@@H]2CCN2C(=O)[C@H](C)N(C)C1=O [Compound 1017] ([NMeL]I[NMeA][Aze][NMePhe(4-Me)][Sar][hPhe(3-F,4-CF3)]P[Ac5c][NMeI][NMeD]-NMe2; lactam N-11)	0.88 nM	≤ 20 nM
CC[C@H](C)[C@@H]1NC(=O)[C@H](C)N(C)C(=O)C[C@@H](C(=O)N2CCCCC2)N(C)C(=O)[C@H](C(C)C)N(C)C(=O)C2(CCCC2)NC(=O)[C@@H]2CCCN2C(=O)[C@H](CCc2ccc(C(F)(F)F)c(F)c2)NC(=O)CN(C)C(=O)[C@H](CC2CCCCC2)N(C)C(=O)[C@@H]2CCN2C(=O)[C@H](C)N(C)C1=O [Compound 1024] ([NMeA]I[NMeA][Aze][NMeCha][Sar][hPhe(3-F,4-CF3)]P[Ac5c][NMeV][NMeD]-Piperidide; lactam N-11)	1.9 nM	> 500 nM
CC[C@H](C)[C@@H]1NC(=O)[C@H](C)N(C)C(=O)C[C@@H](C(=O)N2CCCCC2)N(C)C(=O)[C@H](C(C)C)N(C)C(=O)C2(CCCC2)NC(=O)[C@@H](CC(=O)N2CCC(F)(F)CC2)N(C)C(=O)[C@H](CCc2ccc(C(F)(F)F)c(Cl)c2)NC(=O)CN(C)C(=O)[C@H](CC2CCCCC2)N(C)C(=O)CN(C)C(=O)CN(C)C1=O [Compound 1025] ([NMeA]I[Sar][Sar][NMeCha][Sar][hPhe(3-Cl-4-CF3)][dNMeD](N(CH2CH2)2CF2)[Ac5c][NMeV][NMeD]-Piperidide; lactam N-11)	4.3 nM	> 500 nM
CC[C@H](C)[C@@H]1NC(=O)[C@H](C)N(C)C(=O)C[C@@H](C(=O)N2CCCCC2)N(C)C(=O)[C@H](C(C)C)N(C)C(=O)C(C)(C)N(C)C(=O)[C@@H]2CCCN2C(=O)[C@H](CCc2ccc(C(F)(F)F)c(Cl)c2)NC(=O)CN(C)C(=O)[C@H](CC2CCCCC2)N(C)C(=O)[C@@H]2CCN2C(=O)[C@H](C)N(C)C1=O [Compound 1034] ([NMeA]I[NMeA][Aze][NMeCha][Sar][hPhe(3-Cl-4-CF3)]P[NMeAib][NMeV][NMeD]-Piperidide; lactam N-11)	1.7 nM	> 500 nM
CC[C@H](C)[C@@H]1NC(=O)[C@H](CCC(C)C)N(C)C(=O)C[C@@H](C(=O)N(C)C)N(C)C(=O)[C@H]([C@@H](C)CC)N(C)C(=O)C2(CCCC2)NC(=O)[C@@H]2CCCN2C(=O)[C@H](CCc2ccc(C(F)(F)F)c(Cl)c2)NC(=O)CN(C)C(=O)[C@H](Cc2ccc(C)cc2)N(C)C(=O)[C@@H]2CCN2C(=O)[C@H](C)N(C)C1=O [Compound 1042] ([NMehLeu]I[NMeA][Aze][NMePhe(4-Me)][Sar][hPhe(3-Cl-4-CF3)]P[Ac5c][NMeI][NMeD]-NMe2; lactam N-11)	0.72 nM	≤ 20 nM
CC[C@H](C)[C@@H]1NC(=O)[C@H](CC(C)C)N(C)C(=O)C[C@@H](C(=O)N2CCCCC2)N(C)C(=O)[C@H](C2CCCCC2)N(C)C(=O)C2(CCCC2)NC(=O)[C@H](C)N(CC)C(=O)[C@H](CCc2ccc(C(F)(F)F)c(Cl)c2)NC(=O)CN(C)C(=O)[C@H](CC2CCCCC2)N(C)C(=O)CN(C)C(=O)CN(C)C1=O [Compound 1045] ([NMeL]I[Sar][Sar][NMeCha][Sar][hPhe(3-Cl-4-CF3)][NEtAla][Ac5c][NMeChg][NMeD]-Piperidide; lactam N-11)	6.7 nM	> 500 nM
CC[C@H](C)[C@@H]1NC(=O)[C@H](CC(C)C)N(C)C(=O)C[C@@H](C)N(C)C(=O)[C@H](CC(C)C)NC(=O)C(C)(C)N(C)C(=O)[C@H](C(C)C)NC(=O)[C@H](CCc2ccc(C(F)(F)F)c(F)c2)NC(=O)CN(C)C(=O)[C@H](Cc2ccc(Cl)cc2)N(C)C(=O)CN(C)C(=O)CN(C)C1=O [Compound 1054] (cyclo(I[Sar][Sar][NMePhe(4-Cl)][Sar][hPhe(3-F,4-CF3)]V[NMeAib]L[NMedβ3hAla][NMeL]))	120 nM	> 500 nM
CC[C@H](C)[C@@H]1NC(=O)[C@H](C)N(C)C(=O)C[C@@H](C)NC(=O)[C@H](C(C)C)N(C)C(=O)C2(CCCC2)NC(=O)[C@@H]2CCCN2C(=O)[C@H](CCc2ccc(C(F)(F)F)c(Cl)c2)NC(=O)CN(C)C(=O)[C@H](CC2CCCCC2)N(C)C(=O)[C@@H]2CCCN2C(=O)CN(C)C1=O [Compound 1056] (cyclo([Ac5c][NMeV][d(β3hA)][NMeA]I[Sar]P[NMeCha][Sar][hPhe(3-Cl-4-CF3)]P))	18 nM	> 500 nM
CCCCC[C@H]1C(=O)N[C@@H]([C@@H](C)CC)C(=O)N[C@@H](C)C(=O)N2CC[C@H]2C(=O)N(C)[C@@H](Cc2ccc(C)cc2)C(=O)N(C)CC(=O)N[C@@H](CCc2ccc(C(F)(F)F)c(Cl)c2)C(=O)N2CCC[C@H]2C(=O)NC2(CCCC2)C(=O)N(C)[C@@H](C2CCCC2)C(=O)N(C)[C@H](C(=O)N(C)C)CC(=O)N1C [Compound 1059] ([NMeAhp(2)]IA[Aze][NMePhe(4-Me)][Sar][hPhe(3-Cl-4-CF3)]P[Ac5c][NMeGly(cPent)][NMeD]-NMe2; lactam N-11)	0.64 nM	≤ 20 nM
CC[C@H](C)[C@@H]1NC(=O)[C@H](CC(C)C)N(C)C(=O)C[C@@H](C(=O)N2CCC2)N(C)C(=O)[C@H](C2CCCC2)N(C)C(=O)C2(CCCC2)NC(=O)[C@@H]2CCCN2C(=O)[C@H](CCc2cc(F)c(C(F)(F)F)c(F)c2)NC(=O)CN(C)C(=O)[C@H](CC2CCCCC2)N(C)C(=O)[C@@H]2CCN2C(=O)[C@H](C)N(C)C1=O [Compound 1070] ([NMeL]I[NMeA][Aze][NMeCha][Sar][hPhe(3,5-F2-4-CF3)]P[Ac5c][NMeGly(cPent)][NMeD]-{Azetidin(1-yl)}; lactam N-11)	0.91 nM	≤ 20 nM
CC[C@H](C)[C@@H]1NC(=O)[C@H](CC(C)C)N(C)C(=O)C[C@@H](C)N(C)C(=O)[C@H](CC(C)C)NC(=O)C(C)(C)N(C)C(=O)[C@H](CC(C)C)NC(=O)[C@H](CCc2ccc(C(F)(F)F)c(Cl)c2)NC(=O)CN(C)C(=O)[C@H](CC2CCCCC2)N(C)C(=O)CN(C)C(=O)CN(C)C1=O [Compound 1076] (cyclo(I[Sar][Sar][NMeCha][Sar][hPhe(3-Cl-4-CF3)]L[NMeAib]L[NMedβ3hAla][NMeL]))	19 nM	> 500 nM
